According to patent US20210386829A1, “COMPOSITIONS AND METHODS FOR MODULATING CGRP SIGNALING TO REGULATE INNATE LYMPHOID CELL INFLAMMATORY RESPONSES” (The Broad Institute, Inc., priority 2018, published 2021):
Several values for one entry are separate records, joined by “and”; a condition that tells them apart may be missing. Equal entries are not always repeated.

Assays:
[1] = test system: lung ILC2s; test: expression profiles (RNA-seq) of lung ILC2s cultured with CGRP, IL-33 or both; assay type: cell-based, mouse
Description: RNA-Seq. For population (bulk) RNA-seq, sorted ILCs were lysed with RLT Plus buffer and RNA was extracted using the RNeasy Plus Mini Kit (Qiagen). Full-length RNA-seq libraries were prepared as previously described (Singer, M. et al. A Distinct Gene Module for Dysfunction Uncoupled from Activation in Tumor-Infiltrating T Cells. Cell 166, 1500-1511 e1509, doi:10.1016/j.cell.2016.08.052 (2016). and paired-end sequenced (75 bp×2) with a 150 cycle Nextseq 500 high output V2 kit.
Culture of innate lymphoid cells. Sort-purified innate lymphoid cells (ILCs) were cultured under sterile conditions in complete medium in a humidified incubator at 37° C. and 10% CO2. ILCs were plated at a density of 3,000-5,000 ILCs per well in a 96 well round-bottom plate in cell culture medium with 20 ng/ml IL-7. Depending on the experiment, different combinations of 200 ng/ml IL-25, 200 ng/ml IL-33, 1 ug/ml NMU and 100 nM CGRP were added either at start or after overnight culture with 20 ng/ml IL-7. After 6 hours or 3 days, culture supernatant was removed and frozen at −20° C. and ILCs were lysed in Extraction Buffer (PicoPure RNA isolation Kit; Thermo Fisher Scientific), incubated at 42° C. for 30 min and frozen at −80° C.

[2] = test system: IL-25+NMU-induced airway inflammation; test: IL-25+NMU-induced airway inflammation, intranasal co-administration of CGRP; assay type: in vivo, mouse
Description: Cytokine-induced airway inflammation. Mice received nasally 500 ng IL-25, 500 ng IL-33, 20 ug NMU or 6.65 ug CGRP diluted in DPBS for three consecutive days. For nasal administration, mice were lightly anesthetized with Isoflurane (Cat #07-893-1389; Patterson Veterinary). For induction of inflammatory ILC2s, mice received intraperitoneally 500 ng IL-25 for three consecutive days. One day after the last treatment, mice were euthanized and perfused with 8 ml cold PBS via the right heart ventricle. After exposure of the trachea, a small incision was made at the top of the trachea and a curved gavage needle was inserted. Lungs were washed with 1.5 ml cold PBS via the needle and the retrieved bronchoalveolar lavage fluid was centrifuged at 1300 rpm for 5 min at 4 C. After centrifugation, the supernatant was frozen at −20° C. and the cell pellet was resuspended in 250 ul complete medium and stored on ice until flow cytometric analysis. The post-caval lung lobe was transferred into 10% buffered formalin and stored at room temperature until paraffin embedding for histological analysis. The other lung lobes were dissociated using the lung dissociation kit (Cat #130-095-927; Miltenyi Biotec) and automated tissue dissociator (gentleMACS; Miltenyi Biotec) as described above with the adjustment that after running program lung_02, the single cell suspension was centrifuged at 1300 rpm for 5 min at 4° C. and 1 ml of the supernatant was frozen at −20° C. Single-cell suspension was resuspended in complete cell culture medium and stored on ice until further processing.
For cell counts, lung cells were transferred into FACS tubes and stained with 7AAD. Precision Count Beads (Cat #424902; BioLegend) were added according to manufacturer's instructions. Cells and beads were acquired on a BD LSRFortessa (BD Biosciences) and cell numbers were calculated based on number of acquired live (7AAD−) cells and number of acquired beads.
For flow cytometric analysis, lung cells were transferred into a 96 well V-bottom plate and stained with surface antibodies for 20 min at 4° C. in the dark. Cells were washed twice with DPBS containing 2% fetal bovine serum and transferred into 1.2 ml tubes for analysis by flow cytometry. For intracellular cytokine staining, cells were incubated in complete cell culture medium with 50 ng/ml phorbol 12-myristate 13-acetate (Sigma-Aldrich), 1 uM ionomycin (Sigma-Aldrich) and GolgiStop (Cat #554724; BD Biosciences) in a humidified incubator at 37° C. and 10% CO2. After 5 hours, cells were transferred into 96 well V-bottom plate, stained with Fixable Viability Dye eFluor 506 (Cat #65-0866-14; Thermo Fisher) and surface antibodies for 20 min at 4° C. in the dark and washed twice with DPBS containing 2% fetal bovine serum. Then, cells were incubated with BD Cytofix/Cytoperm Buffer (Cat #51-2090KZ; BD Biosciences) for 20 min, followed by a wash with BD Perm/Wash Buffer (Cat #51-2091KZ; BD Biosciences). Subsequently, cells were incubated with antibodies targeting intracellular proteins diluted in BD Perm/Wash Buffer for 20 min and after two wash steps, transferred into 1.2 ml tubes for analysis by flow cytometry. For ki67 staining, cells were stained for surface antibodies as described above, fixed with a solution of Fixation/Permeabilization Concentrate (Cat #00-5123-43; Invitrogen) and Fixation/Perm Diluent (Cat #00-5223-56; Invitrogen) for 20 min, washed with Permeabilization Buffer (Cat #00-8333-56; Invitrogen). Then, cells were incubated with ki67 antibody diluted in Permeabilization Buffer for 20 min, washed and transferred into FACS tubes. Cells were analyzed on a BD LSRFortessa (BD Biosciences) flow cytometer with 5 lasers (355 nm, 405 nm, 488 nm, 561 nm and 640 nm). Data was analyzed using FlowJo v10.5.0 software and cell populations were gated as described previously (Wallrapp 2017).
RNA isolation and cDNA synthesis. […]

CGRP: neuropeptide calcitonin gene-related peptide (encoded by Calca), ligand of the Ramp1/Calcrl receptor; given at 100 nM in vitro, 6.65 ug nasally
differentially expressed genes of CGRP alone shared with CGRP+IL-33 treatment ([1]; CGRP alone vs CGRP+IL-33): 112 genes | genes associated with cell cycle progression (Mki67, Birc5, Kdm8) ([1]; CGRP treatment alone): down-regulated | number of differentially expressed genes ([1]; CGRP treatment alone (IL-7+CGRP vs IL-7)): 331 genes | Il13 and Arg1 expression (effector ILC2 genes) ([1]; IL-33+CGRP vs IL-33): significantly down-regulated | genes associated with negative regulation of effector T cell responses (Pdcd1, Havcr2, Lilrb4, Entpd1, Tnfrsf18, FoxP3, Nfil3, Nr3c1, Fgl2) ([1]; IL-33+CGRP vs IL-33): upregulated | number of differentially expressed genes up-regulated in the presence of CGRP ([1]; IL-33+CGRP vs IL-33, 3 days): 635 genes | number of differentially expressed genes ([1]; IL-33+CGRP vs IL-33, 3 days, P<0.05, fold change >1.5): > 900 genes and 946 genes | Ramp3 and Calca expression in ILC2s ([1]; with CGRP, confirmed by qPCR): upregulated | lung ILC frequencies and numbers ([2]; IL-25+CGRP vs IL-25, nasal, three consecutive days): no effect | IL-5 protein in lung tissue and BALF ([2]; IL-25+NMU+CGRP vs IL-25+NMU): non-significant trend towards reduced expression | IL-13 protein in lung tissue and bronchoalveolar lavage fluid ([2]; IL-25+NMU+CGRP vs IL-25+NMU): reduced | ILC proliferation (intracellular Ki67) ([2]; IL-25+NMU+CGRP vs IL-25+NMU): significantly decreased | eosinophil frequency and numbers in the BAL ([2]; IL-25+NMU+CGRP vs IL-25+NMU): towards decreased | lung ILC frequencies and numbers ([2]; IL-25+NMU+CGRP vs IL-25+NMU): strong reduction | type 2 cytokine mRNA in lung tissue ([2]; IL-25+NMU+CGRP vs IL-25+NMU): diminished expression
